The source made the active and inactive calls.
Key:
[1] = A High Throughput Confirmatory Assay used to Identify Novel Compounds that Inhibit Mycobacterium Tuberculosis in the absence of Glycerol.; format: functional
[2] = target: T1, Sphingosine 1-phosphate receptor 2 (Homo sapiens, UniProt O95136); assay: Dose Response Cell-Based Assay for Agonists of the Sphingosine 1-Phosphate Receptor 2 (S1P2): Purchased Analogues. [Related pubchem assays: 1192, 373, 439 ]; format: functional
[3] = target: Sphingosine 1-phosphate receptor 1 (Homo sapiens, UniProt P21453); assay: Dose Response Cell-Based Assay for Agonists of the Sphingosine 1-Phosphate Receptor 1 (S1P1): Purchased Analogues. [Related pubchem assays: 1192, 373, 439 ]; format: functional
[4] = target: Sphingosine 1-phosphate receptor 3 (Homo sapiens, UniProt Q99500); assay: Dose Response Cell-Based Assay for Agonists of the Sphingosine 1-Phosphate Receptor 3 (S1P3): Purchased Analogues. [Related pubchem assays: 373, 439 ]; format: functional
[5] = HCT116 cell viability decrease, GSK3B pretreatment – CellTiter-Glo, IC50, dose response (AID 1117339); format: functional; details: HCT-116
[6] = cytotoxicity toward HCT116 cells – cell-based, CellTiter-Glo luminescence, IC50, dose response (AID 1117332); format: functional; details: HCT-116
[7] = RKO cell viability reduction, dose response, CellTiter-Glo luminescence (AID 1117322); format: functional
[8] = HeLa 2N DNA content increase, dose response, cell-based, IC50 (AID 1117349); format: functional
[9] = CellTiter-Glo luminescent dose response of DLD-1 viability loss (AID 1117352); format: functional
[10] = SNU-C1 cell viability reduction, dose response, CellTiter-Glo luminescence (AID 1117323); format: functional, cell-based
[11] = cytotoxicity toward HT-29 cells – cell-based, CellTiter-Glo luminescence, IC50, dose response (AID 1117330); format: functional
[12] = HeLa 4N DNA content increase, dose response, cell-based, IC50 (AID 1117351); format: functional
[13] = target: T1, Sphingosine 1-phosphate receptor 2; assay: Dose Response Cell Based Assay for Agonists of the S1P2 Receptor. [Related pubchem assays: 729, 736, 843 ]; format: functional
[14] = target: T2, Tyrosine-protein phosphatase non-receptor type 7 (Homo sapiens, UniProt P35236); assay: inhibitors of human HePTP phosphatase, […], biochemical, absorbance, leukemia target (AID 521); format: functional
T2 sequence (P35236 whole entry): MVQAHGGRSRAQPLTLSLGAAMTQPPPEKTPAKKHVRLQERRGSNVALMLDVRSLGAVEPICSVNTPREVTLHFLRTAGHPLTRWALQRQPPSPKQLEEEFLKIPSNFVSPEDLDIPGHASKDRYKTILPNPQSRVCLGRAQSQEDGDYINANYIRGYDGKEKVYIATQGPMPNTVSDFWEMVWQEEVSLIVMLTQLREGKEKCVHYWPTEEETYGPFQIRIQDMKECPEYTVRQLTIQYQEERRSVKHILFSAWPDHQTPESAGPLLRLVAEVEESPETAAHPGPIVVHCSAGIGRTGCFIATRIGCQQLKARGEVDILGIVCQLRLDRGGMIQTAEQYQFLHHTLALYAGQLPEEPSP

[15] = target: Melanin-concentrating hormone receptor 1 (Homo sapiens, UniProt Q99705); assay: Fluorescence-based counterscreen for antagonists of the G-protein coupled receptor 7 (GPR7): cell-based high throughput dose response assay to identify antagonists of the melanin-concentrating hormone receptor 1 (MCHR1).; format: functional
[16] = target: Neuropeptides B/W receptor type 1 (Homo sapiens, UniProt P48145); assay: Fluorescence-based dose response cell-based high throughput screening assay to identify antagonists of the G-protein coupled receptor 7 (GPR7). [Related pubchem assays: 1952 (Screening assay (GPR7 antagonists).), 1880 (Summary AID.)]; format: functional
cells [17] = format: functional, cell-based
[18] = HepG2 cell cytotoxicity, dose response, cytotoxicity control, ATP luminescence, cherry-pick, activator set 2 (AID 1053143); format: functional, cell-based
[19] = HeLa cell cytotoxicity, dose response, cytotoxicity control, CellTiter-Glo luminescence, dry powder, set 2 (AID 720593); format: functional, cell-based
[20] = HEK293T cell cytotoxicity, dose response, cytotoxicity control, CellTiter-Glo luminescence, dry powder, set 2 (AID 720595); format: functional, cell-based; details: HEK293
[21] = cytotoxicity toward NIH3T3 fibroblasts, dose response, counter-screen, cell-based, ATP luminescence, mouse fibroblasts (AID 2010); format: functional;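 further: cells exposed to compound for about 90 hours before reading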
[22] = inhibitors of intracellular T. cruzi replication, confirmation, NIH3T3 host cells, beta-gal luminescence (AID 2044); format: functional, cell-based;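 further: intracellular parasites grown in NIH/3T3 mouse fibroblasts as host cells; luminescent beta-galactosidase reporter signal from transgenic T. cruzi replicating inside host cells; inhibitors lower the luminescence signal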
cells [23] = format: functional, cell-based; remark: listed apart in the source
[24] = CTGF mRNA reduction under YAP1 overexpression, dose response, mechanism study for YAP1 pathway inhibitor project, DLD1 cells, RT-qPCR, cherry-pick (AID 1053127); format: functional, cell-based; details: DLD-1
[25] = target: Bifunctional protein GlmU (Mycobacterium tuberculosis, UniProt P9WMN3); assay: Inhibitors of Mycobacterial Glucosamine-1-phosphate acetyl transferase (GlmU). Secondary screen.; set-up: species or system Mycobacterium tuberculosis H37Rv
[26] = target: Induced myeloid leukemia cell differentiation protein Mcl-1 (Homo sapiens, UniProt Q07820); format: functional
Induced myeloid leukemia cell differentiation protein Mcl-1, sequence (Q07820 whole entry): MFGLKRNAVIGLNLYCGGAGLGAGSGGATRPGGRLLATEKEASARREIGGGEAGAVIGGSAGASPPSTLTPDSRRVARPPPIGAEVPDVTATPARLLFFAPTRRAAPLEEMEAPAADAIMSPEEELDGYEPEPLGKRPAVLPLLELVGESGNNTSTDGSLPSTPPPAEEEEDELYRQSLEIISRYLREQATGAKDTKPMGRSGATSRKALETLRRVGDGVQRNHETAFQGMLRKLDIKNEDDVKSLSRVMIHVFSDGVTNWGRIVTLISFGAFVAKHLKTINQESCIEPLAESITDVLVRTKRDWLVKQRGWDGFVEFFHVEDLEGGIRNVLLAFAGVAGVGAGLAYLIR

T1 sequence (O95136 whole entry): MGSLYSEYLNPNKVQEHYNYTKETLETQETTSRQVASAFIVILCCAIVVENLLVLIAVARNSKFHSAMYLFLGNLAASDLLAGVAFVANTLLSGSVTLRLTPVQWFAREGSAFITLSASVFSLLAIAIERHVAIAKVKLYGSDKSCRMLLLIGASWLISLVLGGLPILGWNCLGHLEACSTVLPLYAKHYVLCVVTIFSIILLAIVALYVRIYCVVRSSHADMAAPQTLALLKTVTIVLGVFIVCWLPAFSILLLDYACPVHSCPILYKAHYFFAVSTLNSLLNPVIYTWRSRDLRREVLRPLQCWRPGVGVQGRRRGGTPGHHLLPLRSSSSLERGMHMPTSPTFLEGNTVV
Sphingosine 1-phosphate receptor 3, sequence (Q99500 whole entry): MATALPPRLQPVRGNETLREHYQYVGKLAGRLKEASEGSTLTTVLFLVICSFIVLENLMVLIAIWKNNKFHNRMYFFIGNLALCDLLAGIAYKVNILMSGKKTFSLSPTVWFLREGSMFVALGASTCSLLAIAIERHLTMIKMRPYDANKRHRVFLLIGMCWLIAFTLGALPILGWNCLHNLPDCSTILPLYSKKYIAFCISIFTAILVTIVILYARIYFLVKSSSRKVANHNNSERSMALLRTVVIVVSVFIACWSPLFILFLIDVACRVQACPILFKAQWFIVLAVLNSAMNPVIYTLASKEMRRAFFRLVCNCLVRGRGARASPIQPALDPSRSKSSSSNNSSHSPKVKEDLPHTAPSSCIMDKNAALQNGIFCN
Bifunctional protein GlmU, sequence (P9WMN3 whole entry): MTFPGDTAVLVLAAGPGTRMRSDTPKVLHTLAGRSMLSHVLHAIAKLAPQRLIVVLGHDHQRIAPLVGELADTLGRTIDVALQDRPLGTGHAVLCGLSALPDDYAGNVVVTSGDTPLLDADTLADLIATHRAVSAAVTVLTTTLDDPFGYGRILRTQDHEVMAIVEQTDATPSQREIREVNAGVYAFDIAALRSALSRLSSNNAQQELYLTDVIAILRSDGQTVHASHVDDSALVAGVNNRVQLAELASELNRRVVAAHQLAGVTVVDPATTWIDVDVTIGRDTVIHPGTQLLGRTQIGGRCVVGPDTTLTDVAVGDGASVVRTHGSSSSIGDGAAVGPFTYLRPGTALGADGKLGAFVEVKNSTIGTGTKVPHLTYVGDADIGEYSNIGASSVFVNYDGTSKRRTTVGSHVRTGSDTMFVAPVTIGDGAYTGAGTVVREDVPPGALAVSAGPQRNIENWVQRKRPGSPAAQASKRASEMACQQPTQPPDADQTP
Neuropeptides B/W receptor type 1, sequence (P48145 whole entry): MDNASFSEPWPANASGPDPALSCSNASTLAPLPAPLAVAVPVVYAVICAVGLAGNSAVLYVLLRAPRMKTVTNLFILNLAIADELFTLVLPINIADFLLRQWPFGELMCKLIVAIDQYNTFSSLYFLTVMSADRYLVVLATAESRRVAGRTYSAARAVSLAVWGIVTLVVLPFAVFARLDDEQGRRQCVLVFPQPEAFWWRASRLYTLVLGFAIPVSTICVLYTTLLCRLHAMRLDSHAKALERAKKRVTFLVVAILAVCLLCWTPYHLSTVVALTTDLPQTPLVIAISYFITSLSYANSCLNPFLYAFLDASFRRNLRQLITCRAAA
Sphingosine 1-phosphate receptor 1, sequence (P21453 whole entry): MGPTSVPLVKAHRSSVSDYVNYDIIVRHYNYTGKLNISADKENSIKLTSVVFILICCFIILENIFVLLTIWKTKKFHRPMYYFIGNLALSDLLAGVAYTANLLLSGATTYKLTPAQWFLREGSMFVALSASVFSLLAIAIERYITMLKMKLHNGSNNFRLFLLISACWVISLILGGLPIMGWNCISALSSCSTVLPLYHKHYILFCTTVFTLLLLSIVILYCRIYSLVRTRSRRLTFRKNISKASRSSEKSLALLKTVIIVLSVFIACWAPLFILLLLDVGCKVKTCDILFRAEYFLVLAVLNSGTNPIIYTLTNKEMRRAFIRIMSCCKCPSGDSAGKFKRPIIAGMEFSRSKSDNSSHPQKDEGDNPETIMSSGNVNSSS
Melanin-concentrating hormone receptor 1, sequence (Q99705 whole entry): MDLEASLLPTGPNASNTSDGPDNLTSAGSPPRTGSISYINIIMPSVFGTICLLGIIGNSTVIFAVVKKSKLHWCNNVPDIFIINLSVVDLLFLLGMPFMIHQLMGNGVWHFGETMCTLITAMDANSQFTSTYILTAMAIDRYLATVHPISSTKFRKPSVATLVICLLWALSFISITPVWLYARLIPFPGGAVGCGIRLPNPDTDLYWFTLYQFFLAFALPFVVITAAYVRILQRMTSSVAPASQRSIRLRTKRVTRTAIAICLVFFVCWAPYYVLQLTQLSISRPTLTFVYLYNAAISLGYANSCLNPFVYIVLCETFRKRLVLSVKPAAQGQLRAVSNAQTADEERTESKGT

Which IC50 [1] does the source give for `CC(C)OC(=O)c1ccc(NC(=S)NC(=O)c2cncc(Br)c2)cc1` here?
Its IC50 is > 100 µM (active).

What does the source list for `Cc1cc(C(=O)N2C(C)CCCC2C)no1` (stereo unspecified)?
EC50 [2]: > 10 µM (not active); EC50 [3]: > 50 µM (not active); EC50 [4]: > 50 µM (not active)

With `CC(C)C[C@H](NC(=O)[C@H](CCc1ccccc1)NC(=O)CN1CCOCC1)C(=O)N[C@@H](Cc1ccccc1)C(=O)N[C@@H](CC(C)C)C(=O)[C@@]1(C)CO1` [CARFILZOMIB] as the compound, how does the IC50 [5] read?
Its IC50 is 0.00173 µM (active).

What about the IC50 [6] of the same compound?
The IC50 was 0.00558 µM (active).

And the IC50 [7]?
Its IC50 is 0.00394 µM (active).

What about the IC50 [8] of the same compound?
The IC50 was > 10 µM (inactive).

And the IC50 [9]?
Its IC50 is 0.00696 µM (active).

And the IC50 [10]?
Its IC50 is 0.00147 µM (active).

What about the IC50 [11] of the same compound?
The IC50 was 0.00318 µM (active).

And the IC50 [12]?
Its IC50 is > 10 µM (inactive).

With `CCOC(=O)CN(C(=O)CSc1nnc(COc2ccc(OC)cc2)n1C)c1ccccc1` as the compound, how does the EC50 [13] read?
The EC50 was > 50 µM (not active).

Which IC50 [14] does the source give for `CC(C)(C)OC(=O)N1CC(O)CC1C(=O)OCC(=O)c1ccc(Cl)cc1` (stereo unspecified) here?
Its IC50 is > 100 µM (not active).

For `CCc1ccc(Cn2nnc(C(=O)Nc3ccc(OC)cc3OC)c2N)cc1`, which IC50 [15] is on record?
Its IC50 is > 43.8 µM (not active).

And the IC50 [16]?
The IC50 was > 43.8 µM (not active).

Which results are given for `CCc1cc2c(O)nc(-c3ccccn3)nc2s1`?
EC50 (cells [17]): > 350 µM (not active); AC50 [18]: 14.2 µM (active); AC50 [19]: 24.1 µM (active); AC50 [20]: 34.5 µM (active); EC50 [21]: 2.45 µM (active); EC50 [22]: 1.38 µM (active); EC50 (cells [23]): 28.8 µM (active)

With `CC(C)(C)[S@@+]([O-])N1Cc2cc(C(=O)NCCc3ccncc3)nc(-c3cccc(-c4cccc(C#N)c4)c3)c2[C@H]1CCO` as the compound, how does the AC50 [24] read?
The AC50 was 0.498 µM (active).

With `O=C(/C=C/c1ccc(O)c(O)c1)O[C@H](Cc1ccc(O)c(O)c1)C(=O)O` [ROSMARINIC ACID] as the compound, how does the IC50 [25] read?
The IC50 was 84.9 µM (active).

And the IC50 [26]?
Its IC50 is 2.03 µM (active).
